Test systems include SNB-19 CNS; MDA-MB-231 breast; OVCAR-8 ovarian; PC-3 prostate; SK-MEL-2 melanoma; HCC-2998 colon; MALME-3M melanoma; ACHN renal; NCI-H460 lung; HL-60(TB) leukemia; UACC-257 melanoma; SW-620 colon; MDA-N; K-562 leukemia; A549 NSCLC; HS 578T breast; CAKI-1 renal; CCRF-CEM leukemia; LOX IMVI melanoma; NCI-H522 lung.
What all share (experiment): inhibition of tumour cell growth, NCI panel, 48 h

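Method: 48-hour compound exposure of cells in 96-well plates, five concentrations, linear interpolation of endpoints. TGI: total growth inhibition.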 *1 amine or outer side, *2 acyl side, *3 side chain or, on linkers, in order; H or OH if unused. Where a SMILES comes first, the peptide text is derived from it. The star is where a group is joined. γGlu = O=C(O)[CH](CCC(=O)[*:2])N[*:1]; NHOH = ON*

In the case of `CC(NC(=O)OC(C)(C)C)C(=O)NC(Cc1ccccc1)C(=O)NCC(=O)Oc1c(Cl)c(Cl)c(Cl)c(Cl)c1Cl` (stereo not drawn), the TGI in the experiment on SNB-19 CNS is greater than 100 µM; with MDA-MB-231 breast it was 36 µM; in the experiment on OVCAR-8 ovarian, 43.9 µM; in the experiment on PC-3 prostate it was 49.4 µM; in the experiment with SK-MEL-2 melanoma, 73.1 µM; with HCC-2998 colon, 30.6 µM. Besides, the TGI in the experiment with MALME-3M melanoma came out at 49.2 µM; with ACHN renal it was 67.6 µM; in the experiment with NCI-H460 lung, 63.3 µM; with HL-60(TB) leukemia it was 53.3 µM; with UACC-257 melanoma, 54.5 µM; in the experiment on SW-620 colon, 47 µM. Further, the TGI with MDA-N is 90.6 µM; in the experiment with K-562 leukemia, greater than 100 µM; in the experiment on A549 NSCLC, 48.1 µM; with HS 578T breast, greater than 100 µM.
In the case of `COc1ccc(/C=C2\CCc3cc(OC)c(OC)cc3C2=O)cc1`, the TGI in the experiment with SNB-19 CNS, in the experiment on MDA-MB-231 breast, in the experiment on OVCAR-8 ovarian, with PC-3 prostate, in the experiment with SK-MEL-2 melanoma and in the experiment with HCC-2998 colon was greater than 10 µM in each case. Also, the TGI in the experiment with MALME-3M melanoma, in the experiment on CAKI-1 renal, in the experiment with ACHN renal, in the experiment on NCI-H460 lung, with HL-60(TB) leukemia and with UACC-257 melanoma was greater than 10 µM throughout. Further, the TGI in the experiment on SW-620 colon, in the experiment on MDA-N, in the experiment with K-562 leukemia, with A549 NSCLC, in the experiment with CCRF-CEM leukemia and in the experiment on LOX IMVI melanoma was greater than 10 µM in each case. Also, in the experiment with HS 578T breast, the TGI is greater than 10 µM.
Regarding `CCOC(=O)CNC(=O)C(CCC(=O)NO)NC(=O)CCC(N)C(=O)O` (stereo not drawn) (γGlu-Glu(NHOH)-Gly-OEt; configuration not given here), the TGI in the experiment on NCI-H522 lung, with SNB-19 CNS, with MDA-MB-231 breast, in the experiment with OVCAR-8 ovarian, in the experiment on PC-3 prostate and with SK-MEL-2 melanoma was greater than 100 µM throughout. In addition, the TGI with HCC-2998 colon, in the experiment with CAKI-1 renal, in the experiment on ACHN renal, in the experiment with NCI-H460 lung, with HL-60(TB) leukemia and in the experiment on UACC-257 melanoma was greater than 100 µM in each case. Also, the TGI in the experiment with SW-620 colon, in the experiment with MDA-N, in the experiment with K-562 leukemia, in the experiment with A549 NSCLC, in the experiment on CCRF-CEM leukemia and with LOX IMVI melanoma was greater than 100 µM each time. In addition, in the experiment with HS 578T breast, the TGI is greater than 100 µM.
On to `Cc1cc2c(cc1C)C(=O)/C(=C/c1ccccc1C(=O)O)C2`, for which the TGI in the experiment on NCI-H522 lung, with SNB-19 CNS, in the experiment with OVCAR-8 ovarian, in the experiment with PC-3 prostate, in the experiment on SK-MEL-2 melanoma and with HCC-2998 colon was greater than 100 µM throughout. The TGI in the experiment on MALME-3M melanoma, with CAKI-1 renal, with ACHN renal, with NCI-H460 lung, with HL-60(TB) leukemia and with UACC-257 melanoma was greater than 100 µM each time. In addition, the TGI was greater than 100 µM in the experiment on SW-620 colon; greater than 100 µM with MDA-N; greater than 100 µM in the experiment with K-562 leukemia; greater than 100 µM in the experiment with A549 NSCLC; greater than 100 µM with CCRF-CEM leukemia; 83.5 µM with LOX IMVI melanoma. In the experiment on HS 578T breast, this compound returned a TGI greater than 100 µM.
With `O=c1c2ccccc2nc2sc(/N=C/C=C/c3ccccc3)nn12`, the TGI with NCI-H522 lung, in the experiment on SNB-19 CNS, with OVCAR-8 ovarian, in the experiment with PC-3 prostate, in the experiment with SK-MEL-2 melanoma and in the experiment with HCC-2998 colon was greater than 100 µM throughout. The TGI in the experiment with MALME-3M melanoma, in the experiment on CAKI-1 renal, in the experiment with ACHN renal, in the experiment with NCI-H460 lung, in the experiment on UACC-257 melanoma and in the experiment with SW-620 colon was greater than 100 µM throughout. In addition, the TGI in the experiment on MDA-N, in the experiment with K-562 leukemia, with A549 NSCLC, with CCRF-CEM leukemia, in the experiment with LOX IMVI melanoma and in the experiment on HS 578T breast was greater than 100 µM in each case.
In the case of `N#CC1=C(N)OC(c2cccc([N+](=O)[O-])c2)C1(C#N)C#N` (stereo not drawn), the TGI in the experiment on NCI-H522 lung amounted to 28.8 µM; in the experiment on SNB-19 CNS, 42.5 µM; in the experiment on OVCAR-8 ovarian it was 92.8 µM; in the experiment on PC-3 prostate it was 51.4 µM; in the experiment with SK-MEL-2 melanoma, 40.4 µM; in the experiment with HCC-2998 colon it was 35.2 µM. The TGI in the experiment on MALME-3M melanoma is 49.3 µM; in the experiment with CAKI-1 renal, 26.6 µM; with ACHN renal it was 33.2 µM; in the experiment on HL-60(TB) leukemia, greater than 100 µM; with UACC-257 melanoma it was 31.3 µM; in the experiment with MDA-N, 62.6 µM. Also, the TGI in the experiment with K-562 leukemia is greater than 100 µM; with A549 NSCLC it was 99.6 µM; in the experiment on LOX IMVI melanoma it was 28.4 µM; in the experiment with HS 578T breast, greater than 100 µM.
Turning to `NNc1ncc2c(n1)-c1ccccc1OC2`, the TGI in the experiment with NCI-H522 lung, in the experiment on SNB-19 CNS, in the experiment on MDA-MB-231 breast, in the experiment with OVCAR-8 ovarian, in the experiment with PC-3 prostate and with SK-MEL-2 melanoma was greater than 100 µM throughout. Moreover, the TGI in the experiment with MALME-3M melanoma is greater than 100 µM; with CAKI-1 renal, greater than 100 µM; in the experiment with ACHN renal it was greater than 100 µM; with NCI-H460 lung, greater than 100 µM; in the experiment with HL-60(TB) leukemia, 45.8 µM; in the experiment with UACC-257 melanoma it was greater than 100 µM. In addition, the TGI in the experiment on SW-620 colon, with MDA-N, in the experiment with K-562 leukemia, with A549 NSCLC, in the experiment on CCRF-CEM leukemia and with LOX IMVI melanoma was greater than 100 µM in each case. This compound gave a TGI with HS 578T breast greater than 100 µM.
For the compound `COC(=O)c1ccc(/C=C2\Oc3cc(O)ccc3C2=O)cc1`, the TGI with NCI-H522 lung, in the experiment with SNB-19 CNS, in the experiment with MDA-MB-231 breast, in the experiment on OVCAR-8 ovarian, with PC-3 prostate and with HCC-2998 colon was greater than 100 µM each time. Further, the TGI in the experiment on CAKI-1 renal, in the experiment on ACHN renal, with NCI-H460 lung, with HL-60(TB) leukemia, in the experiment on UACC-257 melanoma and with SW-620 colon was greater than 100 µM in each case. Besides, the TGI in the experiment with MDA-N, with K-562 leukemia, with A549 NSCLC, with CCRF-CEM leukemia and in the experiment with HS 578T breast was greater than 100 µM in each case.

The values above are taken from PubChem BioAssay (NCI).
